In patent US20260159520A1, “HETEROBIFUNCTIONAL COMPOUNDS AND METHODS OF TREATING DISEASE” (Halda Therapeutics OpCo, Inc., priority 2022, published 2026):

How the values were obtained:
[1] = tested on: T-Rex 293 cell line SC cells lacking increased expression of progesterone receptor isoform B protein; experiment: Cellular growth inhibition, T-Rex 293 SC cells without doxycycline; type: cell-based; details: not exposed to doxycycline, 72 hours, CellTiter-Glo 2.0
Description: (§1) The following types of cells were prepared for this experiment: (i) a T-Rex 293 cell line having increased expression of progesterone receptor isoform B protein due to exposure to doxycycline and (ii) a T-Rex 293 cell line lacking increased expression of progesterone receptor isoform B protein. Ability of the test compounds to inhibit proliferation of the foregoing cell types was evaluated according to the procedures set forth below.
(§2) The doxycycline-inducible progesterone receptor isoform B protein expressing cell line was established using the following protocol: T-Rex 293 cells were purchased from Invitrogen (Cat #R71007) and transfected using Lipofectamine 2000 with the wild-type progesterone receptor B protein sequence cloned into the pcDNA4/TO vector. Transfected cells were selected using 400 μg/mL Zeocin (Invitrogen Cat #R25001). Following selection, single clones were raised and maintained in Dulbecco's Modified Eagle Medium (DMEM) supplemented with 10% w/w Tetracycline-free fetal bovine serum (FBS) and 250 μg/mL Zeocin. Clones were analyzed for expression of progesterone receptor isoform B protein in the presence and absence of 10 ng/mL doxycycline (Sigma Cat #D9891), and a single doxycycline-inducible clone (hereinafter “SC”) was selected for use in downstream assays.
(§3) The SC cells were seeded on poly-D-lysine coated, black clear-bottom 384-well plates at 2500/well, in 25 μL Phenol Red Free Dulbecco's Modified Eagle Medium (DMEM) supplemented with 10% w/w charcoal-dextran treated fetal bovine serum (FBS) and 1% w/w pen-strep, with or without 10 ng/mL doxycycline. Pen-Strep is a commercially available mixture of penicillin G and streptomycin, which is used in mammalian cell culture media to prevent bacterial contamination. Phenol Red Free Dulbecco's Modified Eagle Medium (DMEM) supplemented with 10% w/w charcoal-dextran treated fetal bovine serum (FBS) and 1% w/w pen-strep, with or without 10 ng/mL doxycycline is herein referred to as Treatment Medium. Following seeding of cells in the plates, the plates were spun at 300×g for 30 seconds, then equilibrated to room temperature for 30 minutes, and then deposited in a humidified tissue culture incubator maintained at 37° C. with 5% CO2.
(§4) At 24 hours after seeding of the cells, dilutions of test compound were prepared in DMSO and dissolved in Treatment Medium, to achieve a final DMSO concentration of 0.5% w/w, thereby providing the Test Compound Solution. A 25 μL aliquot of the Test Compound Solution was added to cells in the well plates. An equal volume of a solution containing DMSO and Treatment Medium was used as a negative control. Following treatment of cells with Test Compound Solution or said equal volume of a solution containing DMSO and Treatment Medium, the plates were spun at 300×g for 30 seconds, and then left in an incubator for 72 hours.
(§5) At the end of the treatment duration, cell viability was quantified with CellTiter-Glo 2.0 reagent (Promega Cat #G9243). For this purpose, plates were equilibrated to room temperature for 30 minutes, and then 25 μL of CellTiter-Glo 2.0 reagent was added to cells in the plate wells. Plates were then agitated on a shaker for two minutes at 500 rpm and subsequently incubated at room temperature for 10 minutes. Following incubation, the plates were spun at 3000×g for 30 seconds, then sealed with an optical adhesive cover, and luminescence readings were measured with an EnVision Plate Reader (Perkin Elmer).
(§6) Data was normalized using zero luminescence for baseline. A four-parameter non-linear regression curve fit was applied to dose-response data in GraphPad Prism data analysis software to determine the half-maximal growth inhibitory concentration (GI50) for each test compound.

[2] = tested on: T-Rex 293 cell line SC cells having increased expression of progesterone receptor isoform B protein; experiment: Cellular growth inhibition, T-Rex 293 SC cells with doxycycline (increased progesterone receptor isoform B expression); type: cell-based; details: with 10 ng/mL doxycycline (increased progesterone receptor isoform B), 72 hours, CellTiter-Glo 2.0
Description: as §1, §2, §3, §4, §5, §6

[3] = tested on: T-Rex 293 cell line SC3 cells lacking increased expression of androgen receptor protein; experiment: Cellular growth inhibition, T-Rex 293 SC3 cells without doxycycline; type: cell-based; details: not exposed to doxycycline, 72 hours, CellTiter-Glo 2.0
In short: (§7)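 Doxycycline (10 ng/mL) was either included or omitted to toggle wild-type androgen receptor expression in SC3 cells, a T-Rex 293 clone, grown in stripped-serum, phenol red-free medium. After 72 hours with compound, viable cells were quantified by CellTiter-Glo 2.0.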

[4] = tested on: T-Rex 293 cell line SC3 cells having increased expression of androgen receptor protein; experiment: Cellular growth inhibition, T-Rex 293 SC3 cells with doxycycline (increased androgen receptor expression); type: cell-based; details: with 10 ng/mL doxycycline (increased androgen receptor), 72 hours, CellTiter-Glo 2.0
In short: as §7

VCaP cells = experiment: Cellular growth inhibition assay for VCaP cells; type: cell-based; details: Homo sapiens, 72 hours, CellTiter-Glo 2.0
androgen receptor = target: T1, androgen receptor (Homo sapiens, UniProt P10275); experiment: Binding affinity to androgen receptor ([3H]methyltrienolone radioligand, cell cytosol); details: Table 6
T1 construct: endogenous in cells; host or cells: unnamed cells (cytosol fraction)
T1 sequence (P10275 1-920): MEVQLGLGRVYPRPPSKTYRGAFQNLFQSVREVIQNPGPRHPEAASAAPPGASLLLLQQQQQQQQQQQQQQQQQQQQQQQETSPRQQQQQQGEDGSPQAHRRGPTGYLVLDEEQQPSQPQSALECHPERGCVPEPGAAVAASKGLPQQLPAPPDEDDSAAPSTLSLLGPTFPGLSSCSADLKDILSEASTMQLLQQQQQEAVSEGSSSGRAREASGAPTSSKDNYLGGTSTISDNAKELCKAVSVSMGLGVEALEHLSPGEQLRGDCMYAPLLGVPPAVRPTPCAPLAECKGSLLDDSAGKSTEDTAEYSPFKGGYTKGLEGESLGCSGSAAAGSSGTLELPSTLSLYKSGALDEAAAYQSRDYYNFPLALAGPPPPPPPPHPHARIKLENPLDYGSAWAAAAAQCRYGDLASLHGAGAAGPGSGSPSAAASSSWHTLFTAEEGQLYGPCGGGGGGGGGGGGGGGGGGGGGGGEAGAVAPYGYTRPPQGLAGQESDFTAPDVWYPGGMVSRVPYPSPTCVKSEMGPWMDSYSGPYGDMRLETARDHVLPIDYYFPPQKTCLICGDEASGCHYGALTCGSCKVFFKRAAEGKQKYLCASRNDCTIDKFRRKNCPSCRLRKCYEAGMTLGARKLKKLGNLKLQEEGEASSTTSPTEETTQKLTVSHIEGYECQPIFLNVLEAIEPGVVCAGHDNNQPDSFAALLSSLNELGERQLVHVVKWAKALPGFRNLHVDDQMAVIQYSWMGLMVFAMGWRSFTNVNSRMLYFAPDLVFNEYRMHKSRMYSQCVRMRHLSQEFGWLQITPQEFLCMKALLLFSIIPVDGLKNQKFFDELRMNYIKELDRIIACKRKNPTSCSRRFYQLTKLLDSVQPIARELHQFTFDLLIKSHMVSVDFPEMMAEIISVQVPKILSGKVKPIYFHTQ
Description: Fractions of cell cytosol ([…]) were incubated for 24 hr at 4° C. with 1 nM [^3H]methyltrienolone in the absence or presence of the test compound in a buffer containing 25 mM Hepes-Tris (pH 7.4), 1 mM EDTA, 10 mM Na2MoO4, 2 mM DTT, 5 μM triamcinolone acetonide, and 10% glycerol. Nonspecific binding was determined in the presence of 1 μM testosterone. Following incubation, the samples were filtered rapidly under vacuum through glass fiber filters (GF/B, Packard) presoaked with 0.3% PEI and rinsed several times with ice-cold 50 mM Tris-HCl using a 96-sample cell harvester (Unifilter, Packard). The filters were dried then counted for radioactivity in a scintillation counter (Topcount, Packard) using a scintillation cocktail (Microscint 0, Packard). The results are expressed as a percent inhibition of the control radioligand specific binding. The standard reference compound is testosterone, which is tested in each experiment at several concentrations to obtain a competition curve from which its IC50 is calculated.

CDK9 = target: T2, CDK9 (Homo sapiens, UniProt P50750); experiment: KdELECT binding assay, CDK9; details: CDK9, Table 7
T2 construct: made in house; host or cells: E. coli BL21-derived host (T7 phage) or HEK-293 ('BEK-293' [sic])
Description: Compounds were tested using a KdELECT. Kinase-tagged T7 phage strains were prepared in an E. coli host derived from the BL21 strain. E. coli were grown to log-phase and infected with T7 phage and incubated with shaking at 32° C. until lysis. The lysates were centrifuged and filtered to remove cell debris. The remaining kinases were produced in BEK-293 cells and subsequently tagged with DNA for qPCR detection. Streptavidin-coated magnetic beads were treated with biotinylated small molecule ligands for 30 minutes at room temperature to generate affinity resins for kinase assays. The liganded beads were blocked with excess biotin and washed with blocking buffer (SeaBlock (Pierce), 1% BSA, 0.05% Tween 20, 1 mM DTT) to remove unbound ligand and to reduce non-specific binding. Binding reactions were assembled by combining kinases, liganded affinity beads, and test compounds in 1× binding buffer (20% SeaBlock, 0.17×PBS, 0.05% Tween 20, 6 mM DTT). Test compounds were prepared as 111× stocks in 100% DMSO. Kd values were determined using an 11-point 3-fold compound dilution series with three DMSO control points. All compounds for Kd measurements are distributed by acoustic transfer (non-contact dispensing) in 100% DMSO. The compounds were then diluted directly into the assays such that the final concentration of DMSO was 0.9%. All reactions performed in polypropylene 384-well plate. Each was a final volume of 0.02 mL. The assay plates were incubated at room temperature with shaking for 1 hour and the affinity beads were washed with wash buffer (lx PBS, 0.05% Tween 20). The beads were then re-suspended in elution buffer (lx PBS, 0.05% Tween 20, 0.5 μM nonbiotinylated affinity ligand) and incubated at room temperature with shaking for 30 minutes. The kinase concentration in the eluates was measured by qPCR.

T2 sequence (P50750 whole entry): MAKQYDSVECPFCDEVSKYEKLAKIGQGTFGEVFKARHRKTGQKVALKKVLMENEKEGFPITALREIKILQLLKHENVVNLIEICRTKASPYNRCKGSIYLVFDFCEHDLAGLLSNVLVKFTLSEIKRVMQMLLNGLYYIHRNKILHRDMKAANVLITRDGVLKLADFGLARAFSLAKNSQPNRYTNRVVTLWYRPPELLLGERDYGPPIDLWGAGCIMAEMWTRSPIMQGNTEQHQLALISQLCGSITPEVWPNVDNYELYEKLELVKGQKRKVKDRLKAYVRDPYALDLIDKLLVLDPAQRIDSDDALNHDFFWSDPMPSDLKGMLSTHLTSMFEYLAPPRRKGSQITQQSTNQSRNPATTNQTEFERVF

Row | Compound | GI50 (VCaP cells) [µM] | Kd (androgen receptor) [µM] | Kd (CDK9) [µM] | GI50 [1] [µM] | GI50 [2] [µM] | GI50 [3] [µM] | GI50 [4] [µM]
1 | CCc1cnn2c(NCc3ccc(OCCOCCOCCN(C)c4ncc(C(=O)N[C@H]5C(C)(C)[C@H](Oc6ccc(C#N)c(Cl)c6)C5(C)C)cn4)nc3)cc(N3CCCC[C@H]3CCO)nc12 [Compound I-2, N-((1r,3r)-3-(3-chloro-4-cyanophenoxy)-2,2,4,4-tetra-methylcyclobutyl)-2-((2-(2-(2-((5-(((3-ethyl-5-((S)-2-(2-hydroxyethyl)piperidin-1-yl)pyrazolo[1,5-a]pyrimidin-7-yl)amino)methyl)pyridin-2-yl)oxy)ethoxy)ethoxy)ethyl)(methyl)amino)pyrimidine-5-carboxamide] | – | – | – | < 0.5 | < 0.5 | 0.1 to 1 | 0.1 to 1
2 | CCc1cnn2c(NCc3ccc(OCCOCCOCCOCCOCCOCCOCCOC4CCN(c5ncc(C(=O)N[C@H]6C(C)(C)[C@H](Oc7ccc(C#N)c(Cl)c7)C6(C)C)cn5)CC4)nc3)cc(N3CCCC[C@H]3CCO)nc12 [Compound I-10] | < 0.1 | – | – | < 0.5 | < 0.5 | 0.1 to 1 | < 0.1
3 | CCc1cnn2c(N(C)Cc3ccc(OCCOCCOCCOCCOCCN(C)c4ncc(C(=O)N[C@H]5C(C)(C)[C@H](Oc6ccc(C#N)c(Cl)c6)C5(C)C)cn4)nc3)cc(N3CCCC[C@H]3CCO)nc12 [Compound I-12] | – | < 0.05 | > 2.5 | – | – | > 3.5 | > 3.5
4 | CCc1cnn2c(NCc3ccc(OCCCCOC4CCN(c5ncc(C(=O)N[C@H]6C(C)(C)[C@H](Oc7ccc(C#N)c(Cl)c7)C6(C)C)cn5)CC4)nc3)cc(N3CCCC[C@H]3CCO)nc12 [Compound I-27] | – | – | – | > 3 | < 0.5 | > 3.5 | 0.1 to 1

Continued, in another order:

Row | GI50 (VCaP cells) [µM] | Kd (androgen receptor) [µM] | Kd (CDK9) [µM] | Compound | GI50 [1] [µM] | GI50 [2] [µM] | GI50 [3] [µM] | GI50 [4] [µM]
5 | < 0.1 | < 0.05 | – | CCc1cnn2c(NCc3ccc(OCCCN4CCN(CCCOC5CCN(c6ncc(C(=O)N[C@H]7C(C)(C)[C@H](Oc8ccc(C#N)c(Cl)c8)C7(C)C)cn6)CC5)CC4)nc3)cc(N3CCCC[C@H]3CCO)nc12 [Compound I-11] | – | – | 0.1 to 1 | < 0.1
6 | – | < 0.05 | > 2.5 | CCc1cnn2c(N(C)Cc3ccc(OCCOCCOCCOC4CCN(c5ncc(C(=O)N[C@H]6C(C)(C)[C@H](Oc7ccc(C#N)c(Cl)c7)C6(C)C)cn5)CC4)nc3)cc(N3CCCC[C@H]3CCO)nc12 [Compound I-25] | – | – | > 3.5 | > 3.5
7 | – | > 2.5 | > 2.5 | CCc1cnn2c(NCc3ccc(OCCCCCCCCOC4CCN(c5ncc(C(=O)N[C@H]6C(C)(C)[C@H](Oc7ccc(C#N)c(Cl)c7)C6(C)C)cn5)CC4)nc3)cc(N3CCCC[C@H]3CCO)nc12 [Compound I-31] | – | – | > 3.5 | > 3.5
8 | 0.1 to 1 | 0.5 to 2.5 | – | CCc1cnn2c(NCc3ccc(OCCCN4CCN(CC5CCN(c6cnc(C(=O)N[C@H]7C(C)(C)[C@H](Oc8ccc(C#N)c(Cl)c8)C7(C)C)nc6)CC5)CC4)nc3)cc(N3CCCC[C@@H]3CCO)nc12 [Compound I-58, N-((1r,3r)-3-(3-chloro-4-cyanophenoxy)-2,2,4,4-tetramethylcyclobutyl)-5-(4-((4-(3-((5-(((3-ethyl-5-((R)-2-(2-hydroxyethyl)piperidin-1-yl)pyrazolo[1,5-a]pyrimidin-7-yl)amino)methyl)pyridin-2-yl)oxy)propyl)piperazin-1-yl)methyl)piperidin-1-yl)pyrimidine-2-carboxamide] | – | – | < 0.1 | 0.1 to 1
9 | 0.1 to 1 | < 0.05 | – | CCc1cnn2c(NCc3ccc(OCCOCCN(C)C45CC(N(C)c6ncc(C(=O)N[C@H]7C(C)(C)[C@H](Oc8ccc(C#N)c(Cl)c8)C7(C)C)cn6)(C4)C5)nc3)cc(N3CCCC[C@H]3CCO)nc12 [Compound I-83] | – | – | < 0.1 | < 0.1
